Molecular target: RORc ligand binding domain (Homo sapiens (Human), UniProt P51449)
Sequence (P51449 269-508): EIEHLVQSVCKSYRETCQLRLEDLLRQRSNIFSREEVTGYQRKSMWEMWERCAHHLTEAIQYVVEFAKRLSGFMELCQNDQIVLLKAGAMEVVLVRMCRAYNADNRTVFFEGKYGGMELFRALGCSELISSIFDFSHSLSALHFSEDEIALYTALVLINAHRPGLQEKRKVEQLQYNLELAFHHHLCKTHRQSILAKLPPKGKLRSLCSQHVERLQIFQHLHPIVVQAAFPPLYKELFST

Row | Structure (SMILES) | IC50
1 | CC(=O)N1CCN(c2ccc(CN(C3CCC3)S(=O)(=O)N(C)c3ccccc3)c(F)c2)CC1 [Compound 2, 1-(4-(4-acetylpiperazin-1-yl)-2-fluorobenzyl)-1-cyclobutyl-3-methyl-3-phenyl-sulfonamide] | 28 nM
2 | CS(=O)(=O)N1CCC(Oc2ccc(N3CCN(Cc4ccc(F)cc4)S3(=O)=O)cc2)CC1 [Compound 3, 2-(4-fluorobenzyl)-5-(4-((1-(methylsulfonyl)piperidin-4-yl)oxy)phenyl)-1,2,5-thiadiazolidine 1,1-dioxide] | 6420 nM
3 | CC(C)CN(Cc1ccc(F)cc1)S(=O)(=O)Nc1ccc(OC2CCN(S(C)(=O)=O)CC2)cc1 [Compound 4, 1-(4-fluorobenzyl)-1-isobutyl-3-(4-((1-(methylsulfonyl)piperidin-4-yl)oxy)phenyl)-sulfamide] | 230 nM
4 | CC(=O)N1CCN(c2ccc(CN(C3CCC3)S(=O)(=O)Oc3ccccc3)c(F)c2)CC1 [Compound 10, phenyl 4-(4-acetylpiperazin-1-yl)-2-fluorobenzyl(cyclobutyl)sulfamate] | 7 nM

Source: patent US8912219B2, “Aryl sulfamide and sulfamate derivatives as RORc modulators” (Genentech, Inc., priority 2013, dated 2014)
